Laboratory results from US20260256792A1, “TREATMENT OF CHRONIC SPONTANEOUS URTICARIA BY ADMINISTERING (R)-2-[3-[4-AMINO-3-(2-FLUORO-4-PHENOXY-PHENYL)PYRAZOLO[3,4-D]PYRIMIDIN-1-YL]PIPERIDINE-1-CARBONYL]-4-METHYL-4-[4-(OXETAN-3-YL)PIPERAZIN-1-YL]PENT-2-ENENITRILE” (priority 2023, published 2026).

Tested on: moderate-to-severe chronic spontaneous urticaria (CSU)
Experiment: Phase 2 CSU study: urticaria activity score over 7 days (UAS7)
Type: in vivo, human
Design: key to UAS7 Median / UAS7 Change from baseline Median / UAS7 change from baseline, Q1 / UAS7 change from baseline, Q3 / UAS7 change from baseline, Max / UAS7 Change from baseline LS Mean (SE): UAS7 points; daily UAS score ranges 0–6 points/day, over 7 days
Source text: The study comprises a 12 week, randomized, double-blind, placebo-controlled, multi-center, dose-ranging efficacy and safety phase, followed by a 40 week open label extension (OLE) phase (see FIG. 1). The study consists of three phases and an optional OLE phase. […] Clinically, CSU is characterized by the spontaneous and recurrent appearance of pruritic hives. The proposed primary endpoints were the UAS7 at Week 12 in EU and EU reference countries and the ISS7 in the US. Regardless of where a participant was from, all assessments were the same. The UAS7 score is a composite score containing both the HSS7 and the ISS7. This allowed a global assessment of the two key components of urticaria: hives and itch. […] The UAS is a validated PRO measure. […] The daily UAS scores range from 0 to 6 point/day. […] Patients were to complete the UAS using the e-diary. […] The following secondary endpoints were to be analyzed using the same approach as for the primary endpoint: • Change from baseline in UAS7 at Week 4 • Change from baseline in UAS7 at Week 12 (for US and US reference countries) • Change from baseline in ISS7 at Week 12 (except US and US reference countries) • Change from baseline in HSS7 at Week 12 The following responder secondary endpoints were to be analyzed using the Cochran-Mantel-Haenszel test adjusted by region: • Proportion of participants with UAS7<6 at Week 12 • Proportion of participants with UAS7=0 at Week 12 Participants who received selected prohibited medications and/or rescue medications were to be considered as non-responders for time points after the medication usage. For other participants, all available data including those collected during the off-treatment period were to be used to determine the responder/non-responder status. Missing data were to be considered as non-responders.

[1] = Omalizumab-Naïve Population, 400 mg BID, Week 1
[2] = Omalizumab-Naïve Population, 400 mg BID, Week 2
[3] = Omalizumab-Naïve Population, 400 mg BID, Week 3
[4] = Omalizumab-Naïve Population, 400 mg BID, Week 4
[5] = Omalizumab-Naïve Population, 400 mg BID, Week 12
[6] = Omalizumab-Naïve Population, 400 mg QPM, Week 1
[7] = Omalizumab-Naïve Population, 400 mg QPM, Week 2
[8] = Omalizumab-Naïve Population, 400 mg QPM, Week 3

CC(C)(C=C(C#N)C(=O)N1CCC[C@@H](n2nc(-c3ccc(Oc4ccccc4)cc3F)c3c(N)ncnc32)C1)N1CCN(C2COC2)CC1 [rilzabrutinib, (R)-2-[3-[4-amino-3-(2-fluoro-4-phenoxy-phenyl)pyrazolo[3,4-d]pyrimidin-1-yl]piperidine-1-carbonyl]-4-methyl-4-[4-(oxetan-3-yl)piperazin-1-yl]pent-2-enenitrile]
UAS7 Post-baseline Mean (SD) (Omalizumab-Naïve Population with Outlier Removed, 400 mg QPM, Week 2): 23.44 (8.97)
UAS7 Post-baseline Mean (SD) (Omalizumab-Naïve Population with Outlier Removed, 400 mg QPM, Week 3): 22.01 (9.00)
UAS7 Post-baseline Mean (SD) (Omalizumab-Naïve Population with Outlier Removed, 400 mg QPM, Week 4): 21.92 (8.82)
UAS7 Post-baseline Mean (SD) (Omalizumab-Naïve Population with Outlier Removed, 400 mg QPM, Week 5): 20.63 (9.18)
UAS7 Post-baseline Mean (SD) (Omalizumab-Naïve Population with Outlier Removed, 400 mg QPM, Week 6): 20.21 (10.42)
UAS7 Post-baseline Mean (SD) (Omalizumab-Naïve Population with Outlier Removed, 400 mg QPM, Week 7): 21.11 (10.03)
UAS7 Post-baseline Mean (SD) (Omalizumab-Naïve Population with Outlier Removed, 400 mg QPM, Week 9): 20.25 (10.25)
UAS7 Post-baseline Mean (SD) (Omalizumab-Naïve Population with Outlier Removed, 400 mg QPM, Week 10): 20.27 (10.69)
UAS7 Post-baseline Mean (SD) (Omalizumab-Naïve Population with Outlier Removed, 400 mg QPM, Week 11): 21.17 (11.16)
UAS7 Post-baseline Mean (SD) (Omalizumab-Naïve Population with Outlier Removed, 400 mg TID, Week 1): 18.29 (9.93)
UAS7 Post-baseline Mean (SD) (Omalizumab-Naïve Population with Outlier Removed, 400 mg TID, Week 2): 16.03 (10.59)
UAS7 Post-baseline Mean (SD) (Omalizumab-Naïve Population with Outlier Removed, 400 mg TID, Week 3): 15.20 (9.97)
UAS7 Post-baseline Mean (SD) (Omalizumab-Naïve Population with Outlier Removed, 400 mg TID, Week 4): 14.65 (9.61)
UAS7 Post-baseline Mean (SD) (Omalizumab-Naïve Population with Outlier Removed, 400 mg TID, Week 5): 13.41 (10.60)
UAS7 Post-baseline Mean (SD) (Omalizumab-Naïve Population with Outlier Removed, 400 mg TID, Week 6): 14.10 (11.23)
UAS7 Post-baseline Mean (SD) (Omalizumab-Naïve Population with Outlier Removed, 400 mg TID, Week 7): 13.54 (9.34)
UAS7 Post-baseline Mean (SD) (Omalizumab-Naïve Population with Outlier Removed, 400 mg TID, Week 8): 13.36 (9.81)
UAS7 Post-baseline Mean (SD) (Omalizumab-Naïve Population with Outlier Removed, 400 mg TID, Week 9): 12.57 (9.72)
UAS7 Post-baseline Mean (SD) (Omalizumab-Naïve Population with Outlier Removed, 400 mg TID, Week 10): 12.61 (9.89)
UAS7 Post-baseline Mean (SD) (Omalizumab-Naïve Population with Outlier Removed, 400 mg TID, Week 12): 11.00 (9.90)
UAS7 % Change difference for rilzabrutinib vs. placebo LS Mean (95% CI) [1]: −25.01%
UAS7 % Change from baseline LS Mean (SE) [1]: −34.48 (5.64) %
UAS7 Change difference for rilzabrutinib vs. placebo LS Mean (95% CI) [1]: −6.24
UAS7 Change from baseline LS Mean (SE) [1]: −9.79 (1.58)
UAS7 Post-baseline Mean (SD) [1]: 19.77 (11.32)
UAS7 % Change difference for rilzabrutinib vs. placebo LS Mean (95% CI) [2]: −18.28%
UAS7 % Change from baseline LS Mean (SE) [2]: −36.05 (5.50) %
UAS7 Change difference for rilzabrutinib vs. placebo LS Mean (95% CI) [2]: −4.55
UAS7 Change from baseline LS Mean (SE) [2]: −10.44 (1.57)
UAS7 Post-baseline Mean (SD) [2]: 19.59 (10.86)
UAS7 % Change difference for rilzabrutinib vs. placebo LS Mean (95% CI) [3]: −20.16%
UAS7 % Change from baseline LS Mean (SE) [3]: −40.11 (5.66) %
UAS7 Change difference for rilzabrutinib vs. placebo LS Mean (95% CI) [3]: −5.04
UAS7 Change from baseline LS Mean (SE) [3]: −11.96 (1.67)
UAS7 Post-baseline Mean (SD) [3]: 17.71 (11.91)
UAS7 % Change difference for rilzabrutinib vs. placebo LS Mean (95% CI) [4]: −23.20%
UAS7 % Change from baseline LS Mean (SE) [4]: −43.62 (5.88) %
UAS7 Change difference for rilzabrutinib vs. placebo LS Mean (95% CI) [4]: −5.82
UAS7 Change from baseline LS Mean (SE) [4]: −12.89 (1.73)
UAS7 Post-baseline Mean (SD) [4]: 15.92 (11.71)
UAS7 Post-baseline Mean (SD) (Omalizumab-Naïve Population, 400 mg BID, Week 5): 17.22 (13.36)
UAS7 Post-baseline Mean (SD) (Omalizumab-Naïve Population, 400 mg BID, Week 6): 17.02 (12.76)
UAS7 Post-baseline Mean (SD) (Omalizumab-Naïve Population, 400 mg BID, Week 7): 15.55 (11.97)
UAS7 Post-baseline Mean (SD) (Omalizumab-Naïve Population, 400 mg BID, Week 8): 13.98 (13.06)
UAS7 Post-baseline Mean (SD) (Omalizumab-Naïve Population, 400 mg BID, Week 9): 14.64 (14.43)
UAS7 Post-baseline Mean (SD) (Omalizumab-Naïve Population, 400 mg BID, Week 10): 15.22 (14.36)
UAS7 Post-baseline Mean (SD) (Omalizumab-Naïve Population, 400 mg BID, Week 11): 15.06 (13.80)
UAS7 % Change difference for rilzabrutinib vs. placebo LS Mean (95% CI) [5]: −17.85%
UAS7 % Change from baseline LS Mean (SE) [5]: −48.13 (6.91) %
UAS7 Change difference for rilzabrutinib vs. placebo LS Mean (95% CI) [5]: −4.09
UAS7 Change from baseline LS Mean (SE) [5]: −14.24 (2.06)
UAS7 Post-baseline Mean (SD) [5]: 15.61 (13.91)
UAS7 % Change difference for rilzabrutinib vs. placebo LS Mean (95% CI) [6]: −12.19%
UAS7 % Change from baseline LS Mean (SE) [6]: −21.67 (5.45) %
UAS7 Change difference for rilzabrutinib vs. placebo LS Mean (95% CI) [6]: −3.51
UAS7 Change from baseline LS Mean (SE) [6]: −7.06 (1.52)
UAS7 Post-baseline Mean (SD) [6]: 23.81 (8.78)
UAS7 % Change difference for rilzabrutinib vs. placebo LS Mean (95% CI) [7]: −6.60%
UAS7 % Change from baseline LS Mean (SE) [7]: −24.37 (5.29) %
UAS7 Change difference for rilzabrutinib vs. placebo LS Mean (95% CI) [7]: −1.81
UAS7 Change from baseline LS Mean (SE) [7]: −7.71 (1.52)
UAS7 Post-baseline Mean (SD) [7]: 23.44 (8.97)
UAS7 % Change difference for rilzabrutinib vs. placebo LS Mean (95% CI) [8]: −8.98%
UAS7 % Change from baseline LS Mean (SE) [8]: −28.93 (5.48) %
UAS7 Change difference for rilzabrutinib vs. placebo LS Mean (95% CI) [8]: −2.17
UAS7 Change from baseline LS Mean (SE) [8]: −9.10 (1.61)
